In patent publication US20060094790A1, “Use of sphingosine kinase activator as skin disease treating agent and method for treating skin diseases using the same” (priority 2004, published 2006):

What was measured:
[1] = system: fibroblasts; assay: Collagen synthesis in fibroblasts (PICP, collagen measuring kit); format: cell-based; details: 72 hours; for Amount of PICP produced in fibroblasts (average ± SEM): non-treated control 47.1 ± 9.7; for collagen synthesis increase as compared to the non-treated control: fibroblasts, 0.3 or 1.0 μg/ml (concentration not given)
Method: The following experiment was performed by using fibroblasts in order to evaluate the effect of sphingosine kinase activator upon collagen synthesis.
Each of K6PC4, K6PC-5, K6PC-7 and K6PC-9 was dissolved in DMSO at a concentration of 0.3 and 1.0 μg/ml. The solutions were used as samples and analyzed for collagen synthesis after incubation for 72 hours. 72 hours after the treatment of the sample, culture solution was discarded, cells were washed with serum-free DMEM three times, and cells were cultured again by using flesh serum-free DMEM. After incubation, supernatant in each well was combined and analyzed for the amount of PICP (procollagen type I C-peptide) by using a collagen measuring kit. The standard solution contained in the collagen measuring kit was diluted with a sample and absorption at 450 nm was measured to construct a standard concentration curve (see the following Table 2).
To an antibody-coated microtiter plate comprising a primary collagen antibody applied unifomrily thereto, 100 μl of an antibody-POD conjugate solution and the cell supernatant collected as described above were added, followed by incubation at 37° C. for 3 hours, to induce an antigen-antibody reaction. Then, the reaction mixture was subjected to washing and color developing. After the reaction, the reaction mixture developed a yellow color, wherein the yellowness depended on reaction degrees. Also, 96 well plates developing a yellow color were determined at 450 nm by using a microtiter plate reader.

[2] = system: RBL-2H3 cell line; assay: Intracellular calcium movement (fura-2 fluorescence); format: cell-based; details: RBL-2H3 cells, fura-2, FIGS. 1a to 1d
Method: First, the following experiment for calcium movement was performed in order to determine whether the above sphingosine kinase activator compounds activate sphingosine-1-phosphate, so as to cause intracellular calcium movement, which is a typical activity specific to sphingosine-1-phosphate.
The sphingosine kinase activator compounds were determined for capability of inducing intracellular calcium movement by using a RBL-2H3 cell line, which is one of the typical cell lines showing intracellular calcium movement. The cells are cultured by using an RPMI 1640 culture medium and the cells were washed simultaneously with removal of the medium. Then, 10 μM of fura-2/Am and 250 μl M of sulfinpyrazone were added thereto, followed by incubation for 30 minutes. Cell pellets were obtained by centrifugal separation and the cell pellets were dispersed in Ca^2+-free Locke's solution. The dispersion was divided into a unit of 1×10^6 cells for use in treating samples. Next, the cells were introduced into a cuvet of a fluorescence microscope, each sphingosine kinase activator compound was added thereto, and intracellular calcium movement was observed by the fluorescence microscope (RF-5310PC, Spectrofluoro photometer, SHIMADZU). When intracellular calcium ions are detected, they cause fluorescence by bonding with fura-2. Therefore, a degree of calcium movement caused by a sample was evaluated by calculating a difference between the measurement of fura-2 ([…]) bonded with calcium and that of non-bonded fura-2 ([…]).

[3] = target: T1, sphingosine kinase (Mus musculus, UniProt Q8CI15); assay: Activation of sphingosine kinase (C17-sphingosine-1-phosphate production, HPLC); format: cell-based; details: F9-12 cells, 24 hours, 50 μM compound, PMA 300 nM; for C17-SIP Production: non-treated control 51.72; for increase in production of sphingosine-1-phosphate: versus non-treated control
T1 construct: host or cells: F9-12 cells
Method: The following test for activation of sphingosine kinase was performed to determine whether the effects of the above compounds upon intracellular calcium signal transfer as described in Example 1 were caused by activation of sphingosine kinase.
F9-12 cells were treated with 300 nM of PMA ([…]) as positive control, and 50 μM of each of K6PC4 and K6PC-5 for 24 hours and collected. Then, activity of sphingosine kinase was measured as production of C17-sphingosine-1-phosphate based on 50 μg of protein. Sphingosine-1-phospate was extracted from the collected cells by the steps of: (1) treating with trypsin-EDTA, (2) centrifugal separation at 1,500 rpm for 10 minutes, and (3) washing with PBS, followed by freeze-drying. Then, PBS was added to the freeze-dried product and the resultant product was treated with ultrasonic waves to destroy cells. Sphingosine-1-phosphate was determined by HPLC, and OPA (o-phthalaldehyde) reagent and boric acid buffer were added to the extracted sample and the mixture was reacted at room temperature for 20 minutes. For the HPLC quantitive analysis, fluorescence intensity was measured at each wavelength of 340 nm and 455 nm with a solution in 90% acetonitrile, and a ratio to the internal standard was calculated.

[4] = system: keratinocytes; assay: Differentiation of keratinocytes (western blotting of involucrin and keratin-1); format: cell-based; details: 10 μM, 48 hours, FIG. 2
Method: In order to evaluate the effect of the above compound according to the present invention upon differentiation of keratinocytes, each of K6PC4, K6PC-5, K6PC-7 and K6PC-9 was dissolved in DMSO at a concentration of 10 μM and used as sample. Evaluation was performed by using the western blotting method. As differentiation markers, involucrin and keratine-1, which were differentiation markers of keratinocytes, were measured. Next, 48 hours after the treatment of samples, the culture solution was discarded and the cells were washed with PBS and collected by filtering. The collected cells were washed again and subjected to centrifugal separation to remove supernatant. The cells were dissolved in a solvent and subjected to centrifugal separation at 12,000 rpm for 10 minutes, thereby removing cell membranes, etc. Protein concentration was determined by the Bradford method. Proteins were separated by mini gel type SDS-PAGE (polyacrylamide gel electrohoresis) and transferred to a PVDF (polyvinylidene fluoride) membrane at 100V for 1 hour, so that gel-like proteins were subjected to blotting with a transfer membrane. Then, the membrane was colored with Ponceau S solution to determine whether transfer was accomplished or not. The membrane was blocked by using TTBS (TBS+0.1% Tween 20) solution containing 5% non-fat dried milk. In order to check the amount of involucrin as differentiation marker of keratinocytes, primary antibody involucrin (Neomarkers Co.) was diluted at a ratio of about 1/200 to 1.400, and keratin-1 (Covance Co.) was diluted at a ratio of about 1/1000. Reactions were performed overnight at 4° C. As secondary antibody, anti-mouse IgG and anti-rabbit IgG combined with horseradish peroxidase (HRP) was diluted at a ratio of 1:2000. Then, the secondary antibody was bonded to the primary antibody by making them react at room temperature for 1 hour. The membrane was washed with TTBS three times, reacted with an ECL substrate (Amersham Co.) for 1-3 minutes, and exposed to X-ray films.

[5] = system: hairless mouse; format: in vivo; details: mouse, in vivo
From the text: To evaluate effect of the sphingosine kinase activator upon inhibition of steroid side effects, a steroid was applied to a hairless mouse. Typically, side effects caused by long-term or excessive dose of steroids include skin atrophy expressed by thinning of skin and weakening of skin functions, and a rebound phenomenon including reoccurrence of conditions caused by stopping use of steroids. It is reported that the main cause for such side effects is inhibition of fibroblast activity and a decrease in collagen production (S. Hammer et al., J. Cell. Biochem, 91, 840-851, 2004), Therefore, it is expected that the compound according to the present invention enhances collagen synthesis and differentiation of keratinocytes, and thus inhibits such side effects caused by steroids. To perform a test, a steroid, i.e. 0.05% chlobetason-17-propionate, and […]-5 according to the present invention (1.0% in PEG:EtOH=7:3) were applied to a hairless mouse and changes in the skin were observed. The treating agents were applied to the back of a hairless mouse 9 times per day and the tissue was collected. Then, the epidermis and dermis were observed by carrying out the H & E staining method (hematoxylin and eosin staining) known to one skilled in the art.

T1 sequence (Q8CI15 1-381 isoform Q8CI15-3): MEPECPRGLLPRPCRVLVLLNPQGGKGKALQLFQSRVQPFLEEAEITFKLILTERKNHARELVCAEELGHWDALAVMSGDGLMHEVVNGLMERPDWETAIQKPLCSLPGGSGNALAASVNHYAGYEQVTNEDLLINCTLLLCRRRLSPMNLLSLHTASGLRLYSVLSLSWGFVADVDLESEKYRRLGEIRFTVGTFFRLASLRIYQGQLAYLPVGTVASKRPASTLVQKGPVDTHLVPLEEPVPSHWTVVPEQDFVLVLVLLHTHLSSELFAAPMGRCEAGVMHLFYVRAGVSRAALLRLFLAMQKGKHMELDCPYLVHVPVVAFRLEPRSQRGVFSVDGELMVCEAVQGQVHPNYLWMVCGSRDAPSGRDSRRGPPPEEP

Row | Structure (SMILES) | Amount of PICP produced in fibroblasts (average ± SEM) ([1]; 0.3 μg/ml) | Amount of PICP produced in fibroblasts (average ± SEM) ([1]; 1.0 μg/ml) | collagen synthesis increase as compared to the non-treated control [1] | intracellular calcium movement [2] | C17-SIP Production [3] [pmol/min/mg] | increase in production of sphingosine-1-phosphate [3] | expression of differentiation markers (involucrin, keratin-1) [4] | changes in epidermis and dermis (steroid applied alone) [5]
1 | CCCCCCCC(=O)C(CCCCCC)C(=O)NCC(O)CO (stereo not drawn) [K6PC-4, N-(2,3-dihydroxypropyl)-2-hexyl-3-oxo-decanamide] | 62.01 ± 2.5 | 80.51 ± 4.4 | about 1.7 times | caused intracellular calcium movement | 67.69 | about 30% | expressed the differentiation markers | –
2 | CCCCCCCCCCCCCC(=O)O[C@@H]1[C@@H](C)[C@@]2(O)[C@@H](C=C(CO)C[C@]3(O)C(=O)C(C)=C[C@@H]23)[C@@H]2C(C)(C)[C@]12OC(C)=O [PMA, phorbol microstate acetate, reference compound] | – | – | – | – | 76.76 | about 48% | – | –
3 | CCCCCCCC(=O)C(CCCCCC)C(=O)NCCO (stereo not drawn) [K6PC-9, N-ethanol-2-hexyl-3-oxo-decanamide] | 95.0 ± 5.2 | 86.7 ± 8.2 | about 2.0 times | caused intracellular calcium movement | 66.72 | about 30% | expressed the differentiation markers | –
4 | CCC(=O)O[C@]1(C(=O)CCl)[C@@H](C)C[C@H]2[C@@H]3CCC4=CC(=O)C=C[C@]4(C)[C@@]3(F)[C@@H](O)C[C@@]21C [chlobetason-17-propionate, reference compound] | – | – | – | – | – | – | – | significant thinning of the epidermis and abnormal changes in the dermis
5 | CCCCCCCC(=O)C(CCCCCC)C(=O)NC(C)(CO)CO (stereo not drawn) [K6PC-7, N-(2-methyl-1,3-dihydroxyisopropyl)-2-hexyl-3-oxo-decanamide] | 90.3 ± 12.5 | 87.3 ± 14.9 | about 1.9 times | caused intracellular calcium movement | 75.51 | about 46% | expressed the differentiation markers | –
